The text below walks through data of patent US9499568B2, “Heterocyclic compound and use thereof” (Takeda Pharmaceutical Company Limited, priority 2010, dated 2016).

The experiment relates to MAP-induced hyperlocomotion in male ICR mice. In words: Inhibition of methamphetamine (MAP)-induced hyperlocomotion. Type of experiment: in vivo. The following applies: compound 10 mg/kg p.o. 60 min before MAP 2 mg/kg s.c., FIG. 1. As for the experimental part:
Male ICR mice were supplied by CLEA Japan, Inc (Japan). After arrival to the vivarium, animals were allowed a minimum of 1 week for acclimation. They were housed under a 12:12-h light/dark cycle in a temperature- and humidity-controlled laboratory and allowed food and water ad libitum.
A test compound was suspended in 0.5% methylcellulose in distilled water and orally administered (p.o.). Methamphetamine (Dainippon Sumitomo Pharma Co., Ltd.) was dissolved in saline and subcutaneously administered (s.c.). All drugs were dosed in a volume of 10 mL/kg body weight for mice.
The widely used animal models of psychosis have been the measurement of the extent of hyperlocomotion induced by psychostimulants (e.g., amphetamine, cocaine, methamphetamine, MK-801 and phencyclidine) in rodents (Psychopharmacology 1999, vol. 145: 237-250). 4 compounds (A, B, C, D) were tested for its ability to antagonize MAP-induced hyperlocomotion in mice. Male ICR mice were habituated in the locomotor chambers with infrared sensors (BrainScienceldea Co., Ltd. Japan) to the experiment. After the habituation, animals were treated with either vehicle or the compounds (10 mg/kg, p.o.), and MAP (2 mg/kg, s.c.) was administrated 60 min later. Locomotion activities were measured, and accumulated counts (120 min after administration of MAP) were calculated in each treatment group. All data were represented as means plus the standard errors of the means (n=3-9) and analyzed using Student's t-test with significance set at **P<0.01 and ***P<0.001 or Welch's t-test with significance set at ^$P<0.05, ^$$P<0.01 and ^$$$P<0.001.
Turning to `O=S1(=O)CCN2C=CC=C(c3ccc(Oc4ccccc4)cc3)C2=N1` [A, 9-(4-phenoxyphenyl)-3,4-dihydropyrido[2,1-c][1,2,4]thiadiazine 2,2-dioxide], the “inhibition of MAP-induced hyperlocomotion (accumulated locomotion counts 0-120 min)” value is on record as “significant inhibition”. To `Cc1ccc(Oc2ccc(C3=CC=CN4CCS(=O)(=O)N=C34)cc2)cc1` [B, 9-[4-(4-methylphenoxy)phenyl]-3,4-dihydropyrido[2,1-c][1,2,4]thiadiazine 2,2-dioxide] belongs “significant inhibition”.

For the molecule `CC1=CN2CCS(=O)(=O)N=C2C(c2ccc(OC3CCCCC3)cc2)=N1` [C, 9-[4-(cyclohexyloxy)phenyl]-7-methyl-3,4-dihydropyrazino[2,1-c][1,2,4]thiadiazine 2,2-dioxide], the “inhibition of MAP-induced hyperlocomotion (accumulated locomotion counts 0-120 min)” value is reported as “significant inhibition”. The entry for `O=S1(=O)CCN2C=CC=C(c3ccc(OC4CCCCC4)cc3)C2=N1` [D, 9-[4-(cyclohexyloxy)phenyl]-3,4-dihydropyrido[2,1-c][1,2,4]thiadiazine 2,2-dioxide] is “significant inhibition”.
